Patent publication US20140107109A1, “AMINO-DIHYDROTHIAZINE AND AMINO-DIOXIDO DIHYDROTHIAZINE COMPOUNDS AS BETA-SECRETASE ANTAGONISTS AND METHODS OF USE” (Amgen Inc., priority 2012, published 2014)
Read-outs that look alike come from different tables or passages of the source.

Key:
Cathepsin D (Cat D) = biological target: T1, Cathepsin D (Cat D) (Homo sapiens, UniProt P07339); test: In vitro enzymatic Cathepsin D (Cat D) FRET assay; type: biochemical; settings: read-out: CatD IC50
T1 construct: Recombinant Cat D was expressed in CHO cells; made in house; host or cells: CHO cells
T1 sequence (P07339 65-412, species assumed): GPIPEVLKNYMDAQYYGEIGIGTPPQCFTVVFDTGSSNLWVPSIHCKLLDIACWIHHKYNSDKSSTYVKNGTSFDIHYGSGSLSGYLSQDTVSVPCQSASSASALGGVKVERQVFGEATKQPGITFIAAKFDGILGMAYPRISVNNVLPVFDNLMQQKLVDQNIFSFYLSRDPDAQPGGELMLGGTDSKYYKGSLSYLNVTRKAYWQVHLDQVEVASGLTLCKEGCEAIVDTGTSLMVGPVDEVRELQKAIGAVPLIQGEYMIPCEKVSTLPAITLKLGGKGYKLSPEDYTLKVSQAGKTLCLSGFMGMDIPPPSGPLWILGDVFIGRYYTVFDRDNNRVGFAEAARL
Outline: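 FRET read-out: a fluorophore/quencher-labelled peptide substrate is cleaved by 9 nM Cat D (recombinant, CHO-expressed) following a one-hour preincubation with inhibitor dilutions in DMSO. Tris buffer added to neutralize pH ends the reaction before fluorescence measurement.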

[1] = tested on: Aβ40 in conditioned medium of cells stably expressing Amyloid Precursor Protein (APP); test: In vitro BACE cell-based assay (HEK cell assay), Aβ40 sandwich ELISA; settings: Homo sapiens, HEK293
Outline: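 Aβ40 in conditioned medium was quantified by time-resolved fluorescence sandwich ELISA (pAb40 capture 3 h at 4 °C, biotin-6E10 detection 2 h at 4 °C) after 24 h compound exposure of APP-expressing cells. Doses spanned 10 points from 100 μM or 10 μM top, 0.1% DMSO; IC50 was derived from percent of control.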

[2] = biological target: Beta Secretase enzyme (BACE1) (Homo sapiens, UniProt P56817); test: In vitro enzymatic BACE FRET assay; type: biochemical; settings: read-out: BACE1 FRET assay IC50
Beta Secretase enzyme (BACE1), sequence (P56817 46-501): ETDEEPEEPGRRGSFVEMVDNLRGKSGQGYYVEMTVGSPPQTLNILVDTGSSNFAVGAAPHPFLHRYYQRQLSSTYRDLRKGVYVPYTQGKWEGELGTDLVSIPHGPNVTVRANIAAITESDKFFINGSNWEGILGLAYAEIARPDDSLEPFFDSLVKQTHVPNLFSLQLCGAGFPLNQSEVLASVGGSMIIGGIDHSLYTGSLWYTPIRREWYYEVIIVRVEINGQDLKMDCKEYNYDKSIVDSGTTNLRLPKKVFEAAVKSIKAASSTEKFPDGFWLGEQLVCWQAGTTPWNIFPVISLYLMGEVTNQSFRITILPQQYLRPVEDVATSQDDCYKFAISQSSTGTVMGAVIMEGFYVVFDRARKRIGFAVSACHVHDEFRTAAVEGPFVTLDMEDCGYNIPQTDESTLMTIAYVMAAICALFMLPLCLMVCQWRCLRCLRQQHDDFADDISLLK
Outline: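 Readout: dequenched fluorescence (ex 488 nm/[…]) after neutralizing with Tris buffer. Reactions, begun by adding 50 nM quenched peptide substrate spanning the BACE cleavage site, were incubated one hour at pH 4.2 in 0.05 M acetate with 100 uM genapol and 10% final DMSO.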

| SMILES | IC50 (Cathepsin D (Cat D)) [nM] | IC50 ([1]; average IC50, HEK cell assay) [nM] | IC50 ([2]; average IC50, enzyme assay) [nM] | IC50 ([1]; average IC50, HEK cells) [nM] | IC50 ([2]; average IC50) [nM] | IC50 [1] [nM] | IC50 [2] [nM] | IC50 ([1]; average IC50, cell assay) [nM] |
| --- | --- | --- | --- | --- | --- | --- | --- | --- |
| CCc1cc(Cl)cnc1C(=O)Nc1ccc(F)c([C@]2(C)CS(=O)(=O)C(C)(C)C(N)=N2)c1 [Example 196, (R)—N-(3-(5-amino-3,6,6-trimethyl-1,1-dioxido-3,6-dihydro-2H-1,4-thiazin-3-yl)-4-fluorophenyl)-5-chloro-3-ethylpicolinamide] | 200000 | 5.4 | 1.81 | – | – | – | – | – |
| CCc1cc(Cl)cnc1C(=O)Nc1ccc(F)c([C@]2(CF)CS(=O)(=O)C(C)(C)C(N)=N2)c1 [Example 197, (S)—N-(3-(5-amino-3-(fluoromethyl)-6,6-dimethyl-1,1-dioxido-3,6-dihydro-2H-1,4-thiazin-3-yl)-4-fluorophenyl)-5-chloro-3-ethylpicolinamide] | 416000 | 208 | 1.46 | – | – | – | – | – |
| CC(C)c1cc(Cl)cnc1C(=O)Nc1ccc(F)c([C@]2(CF)CS(=O)(=O)C(C)(C)C(N)=N2)c1 [Example 198, (S)—N-(3-(5-amino-3-(fluoromethyl)-6,6-dimethyl-1,1-dioxido-3,6-dihydro-2H-1,4-thiazin-3-yl)-4-fluorophenyl)-5-chloro-3-isopropylpicolinamide 2,2,2-trifluoroacetate] | 850000 | 91.4 | 7.99 | – | – | – | – | – |
| C[C@@]1(c2cc(NC(=O)c3ccc(Cl)cn3)ccc2F)CS(=O)(=O)C2(CC2)C(N)=N1 [Example 199, N-(3-((6R)-8-amino-6-methyl-4,4-dioxido-4-thia-7-azaspiro[2.5]oct-7-en-6-yl)-4-fluorophenyl)-5-chloro-2-pyridinecarboxamide] | 81000 | – | – | 1.1 | 1.9 | – | – | – |
| C[C@]1(c2cc(NC(=O)c3ccc(Cl)cn3)ccc2F)N=C(N)C2(CC2)S(=O)(=O)[C@@H]1F [Example 200, N-(3-((5S,6R)-8-amino-5-fluoro-6-methyl-4,4-dioxido-4-thia-7-azaspiro[2.5]oct-7-en-6-yl)-4-fluorophenyl)-5-chloro-2-pyridinecarboxamide] | 55600 | – | – | 3.9 | 1.3 | – | – | – |
| C[C@]1(c2cc(NC(=O)c3ccc(Cl)cn3)ccc2F)N=C(N)C2(CC2)S(=O)(=O)[C@H]1F [Example 201, N-(3-((5R,6R)-8-amino-5-fluoro-6-methyl-4,4-dioxido-4-thia-7-azaspiro[2.5]oct-7-en-6-yl)-4-fluorophenyl)-5-chloro-2-pyridinecarboxamide] | 31100 | – | – | 2 | 0.62 | – | – | – |
| Cc1cc(OC(F)F)cnc1C(=O)Nc1ccc(F)c([C@@]2(C)N=C(N)C3(CC3)S(=O)(=O)[C@@H]2F)c1 [Example 202, N-(3-((5S,6R)-8-amino-5-fluoro-6-methyl-4,4-dioxido-4-thia-7-azaspiro[2.5]oct-7-en-6-yl)-4-fluorophenyl)-5-(difluoromethoxy)-3-methyl-2-pyridinecarboxamide] | 96700 | – | – | 3.6 | 1.5 | – | – | – |
| Cc1cc(OC(F)F)cnc1C(=O)Nc1ccc(F)c([C@@]2(C)N=C(N)C3(CC3)S(=O)(=O)[C@H]2F)c1 [Example 203, N-(3-((5R,6R)-8-amino-5-fluoro-6-methyl-4,4-dioxido-4-thia-7-azaspiro[2.5]oct-7-en-6-yl)-4-fluorophenyl)-5-(difluoromethoxy)-3-methyl-2-pyridinecarboxamide] | 30200 | – | – | 2.3 | 0.48 | – | – | – |
| Cc1cc(Cl)cnc1C(=O)Nc1ccc(F)c([C@@]2(C)N=C(N)C3(CC3)S(=O)(=O)[C@@H]2F)c1 [Example 204, N-(3-((5S,6R)-8-amino-5-fluoro-6-methyl-4,4-dioxido-4-thia-7-azaspiro[2.5]oct-7-en-6-yl)-4-fluorophenyl)-5-chloro-3-methylpicolinamide] | 182000 | – | – | – | – | 2.7 | 0.87 | – |
| Cc1cc(Cl)cnc1C(=O)Nc1ccc(F)c([C@@]2(C)N=C(N)C3(CC3)S(=O)(=O)[C@H]2F)c1 [Example 205, N-(3-((5R,6R)-8-amino-5-fluoro-6-methyl-4,4-dioxido-4-thia-7-azaspiro[2.5]oct-7-en-6-yl)-4-fluorophenyl)-5-chloro-3-methylpicolinamide] | 28000 | – | – | – | – | 2.6 | 0.44 | – |
| Cc1cc(C(F)F)cnc1C(=O)Nc1ccc(F)c([C@@]2(C)N=C(N)C3(CC3)S(=O)(=O)[C@@H]2F)c1 [Example 206, N-(3-((5S,6R)-8-amino-5-fluoro-6-methyl-4,4-dioxido-4-thia-7-azaspiro[2.5]oct-7-en-6-yl)-4-fluorophenyl)-5-(difluoromethyl)-3-methyl-2-pyridinecarboxamide] | 193000 | – | – | 5.4 | 1.9 | – | – | – |
| Cc1cc(C(F)F)cnc1C(=O)Nc1ccc(F)c([C@@]2(C)N=C(N)C3(CC3)S(=O)(=O)[C@H]2F)c1 [Example 207, N-(3-((5R,6R)-8-amino-5-fluoro-6-methyl-4,4-dioxido-4-thia-7-azaspiro[2.5]oct-7-en-6-yl)-4-fluorophenyl)-5-(difluoromethyl)-3-methyl-2-pyridinecarboxamide] | 56100 | – | – | 6.7 | 0.92 | – | – | – |
| COc1cnc2c(Nc3ccc(F)c([C@@]4(C)N=C(N)C5(CC5)S(=O)(=O)[C@H]4F)c3)nccc2n1 [Example 208, N-(3-((5R,6R)-8-amino-5-fluoro-6-methyl-4,4-dioxido-4-thia-7-azaspiro[2.5]oct-7-en-6-yl)-4-fluorophenyl)-2-methoxypyrido[3,4-b]pyrazin-5-amine] | 696000 | – | – | 10.7 | < 2 | – | – | – |
| COc1cnc2c(Nc3ccc(F)c([C@@]4(C)N=C(N)C5(CC5)S(=O)(=O)[C@@H]4F)c3)nccc2n1 [Example 209, N-(3-((5S,6R)-8-amino-5-fluoro-6-methyl-4,4-dioxido-4-thia-7-azaspiro[2.5]oct-7-en-6-yl)-4-fluorophenyl)-2-methoxypyrido[3,4-b]pyrazin-5-amine] | 157000 | – | – | 85.4 | 8.5 | – | – | – |
| CC1(C)C(N)=N[C@](C)(c2cc(NC(=O)c3ccc(Cl)cc3)ccc2F)CS1(=O)=O [Example 212, N-(3-((3R)-5-amino-3,6,6-trimethyl-1,1-dioxido-3,6-dihydro-2H-1,4-thiazin-3-yl)-4-fluorophenyl)-4-chlorobenzamide] | 317000 | – | 10.2 | – | – | – | – | 23.3 |
| CC1(C)C(N)=N[C@](C)(c2cc(NC(=O)c3ccc(Cl)cc3F)ccc2F)CS1(=O)=O [Example 213, N-(3-((3R)-5-amino-3,6,6-trimethyl-1,1-dioxido-3,6-dihydro-2H-1,4-thiazin-3-yl)-4-fluorophenyl)-4-chloro-2-fluorobenzamide] | 442000 | – | 12.3 | – | – | – | – | 29 |
| Cc1cc(Cl)cnc1C(=O)Nc1ccc(F)c([C@@]2(CF)CS(=O)(=O)C3(CC3)C(N)=N2)c1 [Example 215, N-(3-((6R)-8-amino-6-(fluoromethyl)-4,4-dioxido-4-thia-7-azaspiro[2.5]oct-7-en-6-yl)-4-fluorophenyl)-5-chloro-3-methyl-2-pyridinecarboxamide] | 432000 | – | – | 903 | 212 | – | – | – |
| Cc1cc(Cl)cnc1C(=O)Nc1ccc(F)c([C@]2(CF)CS(=O)(=O)C3(CC3)C(N)=N2)c1 [Example 216, N-(3-((6S)-8-amino-6-(fluoromethyl)-4,4-dioxido-4-thia-7-azaspiro[2.5]oct-7-en-6-yl)-4-fluorophenyl)-5-chloro-3-methyl-2-pyridinecarboxamide] | 132000 | – | – | 4.4 | 0.54 | – | – | – |
| Cc1cc(OC(F)F)cnc1C(=O)Nc1ccc(F)c([C@]2(CF)CS(=O)(=O)C3(CC3)C(N)=N2)c1 [Example 217, N-(3-((6S)-8-amino-6-(fluoromethyl)-4,4-dioxido-4-thia-7-azaspiro[2.5]oct-7-en-6-yl)-4-fluorophenyl)-5-(difluoromethoxy)-3-methyl-2-pyridinecarboxamide] | 46800 | – | – | 6.1 | 1.2 | – | – | – |
| Cc1cc(OC(F)F)cnc1C(=O)Nc1ccc(F)c([C@@]2(CF)CS(=O)(=O)C3(CC3)C(N)=N2)c1 [Example 218, N-(3-((6R)-8-amino-6-(fluoromethyl)-4,4-dioxido-4-thia-7-azaspiro[2.5]oct-7-en-6-yl)-4-fluorophenyl)-5-(difluoromethoxy)-3-methyl-2-pyridinecarboxamide] | 637000 | – | – | 830 | 150 | – | – | – |
| COc1cnc2c(Nc3cnc(F)c([C@]4(C)CS(=O)(=O)C(C)(C)C(N)=N4)c3)ncc(F)c2c1 [Example 219, N-(5-((3R)-5-amino-3,6,6-trimethyl-1,1-dioxido-3,6-dihydro-2H-1,4-thiazin-3-yl)-6-fluoro-3-pyridinyl)-5-fluoro-3-methoxy-1,7-naphthyridin-8-amine] | 39700 | – | 1.44 | – | – | – | – | 2.9 |
| CC1(C)C(N)=N[C@](C)(c2cc(Nc3ncc(F)c4cc(Cl)cnc34)cnc2F)CS1(=O)=O [Example 220, N-(5-((3R)-5-amino-3,6,6-trimethyl-1,1-dioxido-3,6-dihydro-2H-1,4-thiazin-3-yl)-6-fluoro-3-pyridinyl)-3-chloro-5-fluoro-1,7-naphthyridin-8-amine] | 15200 | – | < 2 | – | – | – | – | 3.3 |
